What follows are substances tested on Mage-A3 sTCR (assay: kdis (1/s)). Conditions: not given.
Text: Table printed on a drawing sheet, FIG. 4B
Head of the field: kdis (1/s)

Substance | kdis
VSCKDVYDEAFCW [Inhibitory peptide 1] | 0.0282 s⁻¹

The substances below were run on MAGE-A3 TCR (assay: not given). Conditions: read-out: ELISA | EC50 | uM.

Substance | EC50
GGCSWIFDGLRYFSKCGGGGS[PEG4]Lys(biotin)- NH2 | 0.15 µM
GGESCQSVYDSSFCYDGGGGS[PEG4]Lys(biotin)- NH2 | 0.1 µM
GGHCFVSPASGEWWCVGGGGS[PEG4]Lys(biotin)- NH2 | 0.08 µM
GGNACEMTYDHTFCDPGGGGS[PEG4]Lys(biotin)- NH2 | 0.17 µM
GGNQCWEVYDQEFCSLGGGGS[PEG4]Lys(biotin)- NH2 | 0.05 µM
GGNSCSLVYDKAFCLFGGGGS[PEG4]Lys(biotin)- NH2 | 0.43 µM
GGRICEEVYDWIFCESGGGGS[PEG4]Lys(biotin)- NH2 | 0.31 µM
GGRRCVDVYDNAFCLIGGGGS[PEG4]Lys(biotin)- NH2 | 0.25 µM
GGSACSRIYDFAFCHTGGGGS[PEG4]Lys(biotin)- NH2 | 0.33 µM
GGSLCSLVYDQDFCESGGGGS[PEG4]Lys(biotin)- NH2 | 0.16 µM
GGTFCYFDHGLVNCQWGGGGS[PEG4]Lys(biotin)- NH2 | 0.5 µM
GGTSCAQIYDFEFCYSGGGGS[PEG4]Lys(biotin)- NH2 | 0.17 µM
GGVSCKDVYDEAFCWTGGGGS[PEG4]Lys(biotin)- NH2 | 0.01 µM
LVWGCIWDDMCSGGGGS[PEG4]Lys(biotin)-NH2 | 0.1 µM
VRTWFEKFPELVGGGGS[PEG4]Lys(biotin)-NH2 | 0.67 µM

What follows are substances tested on HIV TCR (assay: not given). Conditions: read-out: ELISA | EC50 | uM.

Substance | EC50
GGAFCVDTKPGLVCFEGGGGS[PEG4]Lys(biotin)- NH2 | 0.26 µM
GGATCHLDNVYFLCDIGGGGS[PEG4]Lys(biotin)- NH2 | 0.34 µM
GGFTCVDGQVYYLCDSGGGGS[PEG4]Lys(biotin)- NH2 | 0.69 µM
GGGTCFHGNTYFLCEDGGGGS[PEG4]Lys(biotin)- NH2 | 0.29 µM
GGIECYPGFWALDCLYGGGGS[PEG4]Lys(biotin)- NH2 | 0.43 µM
GGLTCSSQNIYYLCSDGGGGS[PEG4]Lys(biotin)- NH2 | 0.4 µM
GGLVCNDGNIWWLCEDGGGGS[PEG4]Lys(biotin)- NH2 | 0.88 µM
GGLVCNDGVVFWLCDSGGGGS[PEG4]Lys(biotin)- NH2 | 0.81 µM
GGMLCNEGYWALSCFLGGGGS[PEG4]Lys(biotin)- NH2 | 0.69 µM
GGQLCPEGYYALMCTDGGGGS[PEG4]Lys(biotin)- NH2 | 0.15 µM
GGQTCIADNVYYLCPEGGGGS[PEG4]Lys(biotin)- NH2 | 0.82 µM
GGSNCYSLEPWIYCDTGGGGS[PEG4]Lys(biotin)- NH2 | 0.5 µM
GGTTCLEGGVYFLCADGGGGS[PEG4]Lys(biotin)- NH2 | 0.74 µM
GGVICTADGVYWLCDLGGGGS[PEG4]Lys(biotin)- NH2 | 1.29 µM
GGVTCNDGKIFYLCSDGGGGS[PEG4]Lys(biotin)- NH2 | 0.63 µM
GGVTCSLGNVFYLCHDGGGGS[PEG4]Lys(biotin)- NH2 | 0.39 µM

Each substance was assayed on gp100 TCR (assay: not given). Conditions: read-out: ELISA | EC50 | uM.

Substance | EC50
GGCHWEHVWGAGSFFCGGGGS[PEG4]Lys(biotin)-NH2 | 1.26 µM
GGDICQWVRSMTECSWGGGGS[PEG4]Lys(biotin)-NH2 | 0.17 µM
GGFCRYVRYEFWDLCMGGGGS[PEG4]Lys(biotin)-NH2 | 0.54 µM
GGHCYDTHSFPMYVCLGGGGS[PEG4]Lys(biotin)-NH2 | 2.58 µM
GGICYDYMSGYDVVCMGGGGS[PEG4]Lys(biotin)-NH2 | 0.11 µM
GGLCRAVEDMWVTSCMGGGGS[PEG4]Lys(biotin)-NH2 | 4.04 µM
GGYCPLSYSQYDSPCYGGGGS[PEG4]Lys(biotin)-NH2 | 0.1 µM
GGYCYYDIDLDQFLCNGGGGS[PEG4]Lys(biotin)-NH2 | 0.23 µM
GGYDCNYDPSSHTCFYGGGGS[PEG4]Lys(biotin)-NH2 | 0.12 µM

The substances below were run against HIV pMHC binding to anti-HIV TCR (assay: not given). Conditions: read-out: ELISA | IC50 | uM.

Substance | IC50
GGAFCVDTKPGLVCFEGGGGS[PEG4]Lys(biotin)- NH2 | 112 µM

What follows are substances tested on MAGE-A3 TCR / MAGE-A3 pMHC (assay: not given). Conditions: read-out: ELISA | IC50 | uM.

Substance | IC50
GGHCFVSPASGEWWCVGGGGS[PEG4]Lys(biotin)- NH2 | > 100 µM
GGVSCKDVYDEAFCWTGGGGS[PEG4]Lys(biotin)- NH2 | 0.6 µM
LVWGCIWDDMCSGGGGS[PEG4]Lys(biotin)-NH2 | > 100 µM

Reference: patent US12606816B2, “Inhibitory T cell receptor peptides and discovery methods” (JANUX THERAPEUTICS, INC., priority 2018, dated 2026)
